This experiment concerns the target CyaB (Pseudomonas aeruginosa, UniProt Q9HZ23). Nature of the experiment: adenylyl cyclase activity assay with purified enzyme. The format is biochemical.

Data on one substance can be found in PMC3269522 (2011).

By IC50 is commonly meant the concentration at which inhibition is half-maximal. A high value points to weaker potency. The substance KH7.148 gave an IC50 of approximately 10 µM.
